Results published in patent US7632666B2 (priority 2005, dated 2009).
Like-named read-outs stand apart in the source and are kept apart here.

Tests used:
[1] = target: haloalkane dehalogenase DhlA (Xanthobacter autotrophicus, UniProt P22643); assay type: biochemical, Xanthobacter autotrophicus GJ10
[2] = target: haloalkane dehalogenase DhaA (Rhodococcus rhodochrous, UniProt P0A3G2); assay type: biochemical, Rhodococcus rhodochrous NCIMB 13064
[3] = target: haloalkane dehalogenase LinB (Sphingobium indicum, UniProt D4Z2G1); assay type: biochemical, Sphingomonas paucimobilis UT26
[4] = target: haloalkane dehalogenase DbjA (Bradyrhizobium diazoefficiens, UniProt P59337); assay type: biochemical, Bradyrhizobium japonicum USDA110
[5] = tested on: haloalkane dehalogenase DbeA; assay type: biochemical, Bradyrhizobium elkanii; settings: pH 8.2
[6] = tested on: haloalkane dehalogenases DmbA, DmbB, DmbC, DhlA, DhaA, DrbA, LinB, DhmA, DbjA and DbeA; assay type: biochemical
[7] = target: haloalkane dehalogenase DmbB (Mycobacterium bovis, UniProt P64302); assay type: biochemical; settings: pH 8.2
[8] = target: haloalkane dehalogenase DmbC (Mycobacterium bovis, UniProt P64304); assay type: biochemical; settings: pH 8.2
[9] = tested on: haloalkane dehalogenase DrbA; assay type: biochemical, Rhodopirellula baltica; settings: pH 8.2
[10] = target: haloalkane dehalogenase DhmA (Mycobacterium avium, UniProt Q93K00); assay type: biochemical; settings: pH 8.2
[11] = target: modified protein MUT01 with haloalkane dehalogenase activity (Rhodococcus rhodochrous, UniProt P0A3G2, A172V/C176G/F144A/G171R/INS140[…]/K175G/P142A/V245A/W141H); assay type: biochemical; settings: pH 8.2
[12] = target: haloalkane dehalogenase LinB wild type (Sphingobium indicum, UniProt D4Z2G1); assay type: biochemical, Sphingomonas paucimobilis UT26
[13] = target: haloalkane dehalogenase LinB L177A (Sphingobium indicum, UniProt D4Z2G1, L177A); assay type: biochemical
[14] = target: haloalkane dehalogenase LinB L177C (Sphingobium indicum, UniProt D4Z2G1, L177C); assay type: biochemical
[15] = target: haloalkane dehalogenase LinB L177G (Sphingobium indicum, UniProt D4Z2G1, L177G); assay type: biochemical
[16] = target: haloalkane dehalogenase LinB L177F (Sphingobium indicum, UniProt D4Z2G1, L177F); assay type: biochemical
[17] = target: haloalkane dehalogenase LinB L177K (Sphingobium indicum, UniProt D4Z2G1, L177K); assay type: biochemical
[18] = target: haloalkane dehalogenase LinB L177T (Sphingobium indicum, UniProt D4Z2G1, L177T); assay type: biochemical
[19] = target: haloalkane dehalogenase LinB L177W (Sphingobium indicum, UniProt D4Z2G1, L177W); assay type: biochemical
[20] = target: haloalkane dehalogenase LinB L177D (Sphingobium indicum, UniProt D4Z2G1, L177D); assay type: biochemical
[21] = target: haloalkane dehalogenase LinB L177H (Sphingobium indicum, UniProt D4Z2G1, L177H); assay type: biochemical
[22] = target: haloalkane dehalogenase LinB L177M (Sphingobium indicum, UniProt D4Z2G1, L177M); assay type: biochemical
[23] = target: haloalkane dehalogenase LinB L177Q (Sphingobium indicum, UniProt D4Z2G1, L177Q); assay type: biochemical
[24] = target: haloalkane dehalogenase LinB L177R (Sphingobium indicum, UniProt D4Z2G1, L177R); assay type: biochemical
[25] = target: haloalkane dehalogenase LinB L177S (Sphingobium indicum, UniProt D4Z2G1, L177S); assay type: biochemical
[26] = target: haloalkane dehalogenase LinB L177V (Sphingobium indicum, UniProt D4Z2G1, L177V); assay type: biochemical
[27] = target: haloalkane dehalogenase LinB L177Y (Sphingobium indicum, UniProt D4Z2G1, L177Y); assay type: biochemical

CCCC(C)Br (racemic) [2-bromopentane]
E-values DhlA [1]: 5.5 | E-values DhaA [2]: 7 | E-values LinB [3]: 16 | E-values DbjA [4]: 145 | E-value, chiral recognition by DbjA ([4]; pH 8.2): > 145 | E-value, chiral recognition by DbeA [5]: 98

CC(Br)C(=O)c1ccccc1 (racemic) [2-bromopropiophenone]
E-values DhaA [2]: >200 | E-values LinB [3]: 13 | E-values DbjA [4]: >200 | E-value, chiral recognition by DbjA ([4]; pH 8.2): > 200 | enantioselectivity [6]: excellent enantioselectivity

CCOC(=O)C(Br)CC (racemic) [ethyl 2-bromobutyrate]
E-values DhaA [2]: >200 | E-values DhaA ([2]; pH 8.2): >200 | E-values LinB [3]: >200 | E-values LinB ([3]; pH 8.2): >200 | E-values DbjA [4]: >200 | E-values DbjA ([4]; pH 8.2): >200 | E-values DmbB [7]: >200 | E-values DmbC [8]: >200 | E-values DrbA [9]: >200 | E-values DhmA [10]: >200 | E-values DbeA [5]: >200

CCOC(=O)C(C)Br (racemic) [ethyl 2-bromopropionate]
E-values DhaA [2]: 59 | E-values LinB [3]: 97 | E-values DbjA [4]: 194 | E-value, chiral recognition by protein MUT01 [11]: > 200 | enantioselectivity [6]: excellent enantioselectivity

COC(=O)C(C)Br (racemic) [methyl 2-bromopropionate]
E-values DhaA [2]: 68 | E-value, chiral recognition by DhaA ([2]; pH 8.2): > 200 | E-values LinB [3]: 52 | E-values DbjA [4]: >200 | enantioselectivity [6]: excellent enantioselectivity

C=C(C)CCl [3-chloro-2-methylpropene]
Relative activities (% of wt) wt1 [12]: 100 % of wt | Relative activities (% of wt) wt2 [12]: 100 % of wt | Relative activities (% of wt) L177A [13]: 199 % of wt | Relative activities (% of wt) L177C [14]: 157 % of wt | Relative activities (% of wt) L177G [15]: 200 % of wt | Relative activities (% of wt) L177F [16]: 98 % of wt | Relative activities (% of wt) L177K [17]: 110 % of wt | Relative activities (% of wt) L177T [18]: 96 % of wt | Relative activities (% of wt) L177W [19]: 91 % of wt | Relative activities (% of wt) L177D [20]: 25 % of wt | Relative activities (% of wt) L177H [21]: 82 % of wt | Relative activities (% of wt) L177M [22]: 100 % of wt | Relative activities (% of wt) L177Q [23]: 138 % of wt | Relative activities (% of wt) L177R [24]: 83 % of wt | Relative activities (% of wt) L177S [25]: 65 % of wt | Relative activities (% of wt) L177V [26]: 79 % of wt | Relative activities (% of wt) L177Y [27]: 78 % of wt
